# Where two headings read alike, the source gives them in different places.
# What was measured:
# [1] = Caco-2 cell bidirectional permeability; format: in vitro ADME; conditions: human; for recovery at 2 h, 10 µM: Caco-2, Caco-2
# Protocol: In this study, bidirectional permeability assays were conducted as described in the literature, with minor modifications. Briefly, Caco-2 cells (KCLB, Seoul, Korea) were seeded on Transwell® inserts (Corning Inc., Glendale, AZ, USA) and grown in a humidified atmosphere of 5% CO2 at 37 °C to form a confluent monolayer over 3 weeks. On day 21, after seeding, the integrity of the cell monolayer was assessed by measuring the transepithelial electrical resistance using an epithelial voltohmmeter (EVOM and EVOMX, World Precision Instruments, Sarasota, FL, USA). The medium in donor and receiver compartments was then replaced with 5 mM of HEPES in HBSS, and preincubated for 10 min at 37 °C. The permeability study was initiated by adding IDP-73152 (in a 10 µM final concentration in the chambers) to an apical insert (for apical-to-basolateral (A-to-B) transport) or a basolateral chamber (for basolateral-to-apical (B-to-A) transport). Samples were collected from both compartments at 30 min intervals up to 2 h. Throughout the study, the temperature and atmosphere of the compartments were maintained at 37 °C and 5% CO2. The samples were stored at −80 °C until analysis and the concentration of the compound was determined by LC-MS/MS assay for IDP-73152 [10]. The apparent permeability coefficient (Papp, in cm/s) was calculated using the following equation:(1) Papp=(dQ/dt/C0×A) where dQ/dt is the rate of IDP-73152 transport across monolayers (nmol/s), C0 is the initial concentration of IDP-73152 (10 μM), and A is the surface area of the insert (1.12 cm^2). The efflux ratio of IDP-73152 in the Caco-2 cell system was calculated by the ratio of Papp from B-to-A transport (Papp,B-to-A) to Papp from A-to-B transport (Papp,A-to-B).
# [2] = PBPK model prediction, mice
# Source text: (§1) In this study, the PBPK model involving ten tissues (i.e., adipose tissue, brain, heart, kidney, liver, lung, muscle, skin, spleen, and testis (Figure 2; see Appendix A for detailed mathematical descriptions)) was considered to be applicable for the description of IDP-73152 PK in rats, mice, dogs, and humans. Physiological variables were obtained from the literature; they are summarized in Supplementary Table S1.
# (§2) For the estimation of the volume of the distribution of IDP-73512 in rats, the steady-state volume of distribution (Vss) was calculated using the following equation [30]:(10) Vss=VP+Vrbc×EP+∑VT,i×KP,ss,i, where Vp, Vrbc, and VT,i are the volumes of plasma, red blood cells, and tissues, respectively. The erythrocyte-to-plasma partition coefficient (EP), is calculated by EP=1+(BP−1)/Hematocrit . The KP,ss for each tissue obtained from Equation (8) was applied for Equation (10). For the case of non-eliminating organs, the KP,ss was regarded as the tissue-to-plasma partition coefficient (KP) in PBPK equations (Appendix A). For the case of the liver—i.e., the eliminating organ—the KP,ss (KP,ss,LI) had to be corrected to account for the equilibrium being altered by the elimination. Thus, a PBPK-operative KP for liver (KP,LI) was calculated using the following equation [31]:(11) KP,LI=KP,ss,LI/(1−ER), where ER is the hepatic extraction ratio of the compound (i.e., CLh/(QLI·BP)). In this study, a compartmental absorption and transit (CAT) model consisting of stomach and five intestinal segments was considered for the description of the intestinal absorption kinetics of IDP-73152 in animals and humans. We assumed that the initial compartment denoted the stomach (Equation (12)), and the subsequent three compartments represented the small intestine and two additional compartments for the large intestine (i.e., a total of six compartments, with absorption occurring in the five intestinal compartments) (Equation (13)). The differential equations describing the rate of drug absorption and transit in the gastrointestinal tract can be written as:
# (§3) For the intestine, viz. i = 1~5:(13) dMi/dt=Kt,i−1×Mi−1−(Kt,i+ka,i)×Mi, where Ms is the amount of drug in the stomach; Mi is the amount of drug in the i-th intestinal segment; Ks, Kt,i, and ka,i are the rate constants of gastric emptying, intestinal transit, and the segmental absorption rate, respectively. In Equation (13) at i = 1, Kt,0 and M0 represent Ks and Ms, respectively. […] The absorption rate constant in the intestinal segments in humans, ka,i,human, was assumed to be identical along the segments and calculated as follows: first, Peff was empirically estimated from the Caco-2 cell permeability (Papp):(14) LogPeff=0.4926×LogPapp−0.1454 […]
# [3] = PBPK model prediction, rats
# Source text: as §1
# In addition, from metabolic stability studies, it was evident that IDP-73152 was metabolically unstable in the incubations containing liver microsomes (from all species)/hepatocytes (from rats) and in the rat plasma. […] Accordingly, during model development, we initially assumed that IDP-73152 was entirely eliminated by the metabolism in the liver (namely, CLh) and in the blood (namely, CLblood) in rats: For other species (i.e., mice, dogs, and humans), the elimination was assumed to be primarily mediated by metabolism in the liver. From the results of in vitro metabolic stability studies, the hepatic clearance (CLh) in rats was estimated under the assumption that the well-stirred liver model was adequate for IDP-73152 [29]:(9) CLh=QLI×BP×fu,p×CLu,int,H/QLI×BP+fu,p×CLu,int,H, where QLI, and fu,p represent the liver blood flow and the unbound fraction of IDP-73152 in the plasma, respectively.
# as §2, with “The differential equations describing the rate of drug absorption and transit in the gastrointestinal tract can be written as:” left out
# as §3, with “respectively.” for “respectively. In Equation (13) at i = 1, Kt,0 and M0 represent Ks and Ms, respectively.”
compound,measurement,setting,value
CC(C)(C)[C@H](NC(=O)[C@H](CC1CCCC1)CN(O)C=O)C(=O)N1CCC(NCc2cc(F)c(F)cc2F)CC1 [IDP-73152],"recovery at 2 h, 10 µM","[1]; read-out: recovery, A to B transport",96.6 ± 5.1%
same,"recovery at 2 h, 10 µM","[1]; read-out: recovery, B to A transport",93.4 ± 3%
same,"efflux ratio at 2 h, 10 µM","[1]; Caco-2, Papp,B-to-A / Papp,A-to-B",< 2
same,"Papp A→B at 2 h, 10 µM","[1]; Caco-2 monolayer, 10 µM, apical-to-basolateral",31.2 ± 1.93 ×10⁻⁶ cm/s
same,"Papp B→A at 2 h, 10 µM","[1]; Caco-2 monolayer, 10 µM, basolateral-to-apical",49.5 ± 3.5 ×10⁻⁶ cm/s
same,AUC ratio,[2]; intravenous 10 mg/kg,1.15
same,Cmax ratio without the scaling (SF),[2]; oral,1.72
same,AUC ratio,[2]; oral 20 mg/kg,0.880
same,Cmax ratio,[2]; oral 20 mg/kg,0.906
same,AUC ratio (Predicted AUCinf/Observed AUCinf),[3]; intravenous 2.5 mg/kg,1.09
same,AUC ratio (Predicted AUCinf/Observed AUCinf),[3]; intravenous 10 mg/kg,1.14
same,Cmax ratio without the scaling (SF),[3]; oral,2.36
same,AUC ratio (Predicted AUCinf/Observed AUCinf),[3]; oral 20 mg/kg,1.03
same,Cmax ratio (Predicted Cmax/Observed Cmax),[3]; oral 20 mg/kg,1.02

# — publication PMC9227536, “Prediction of Pharmacokinetics of IDP-73152 in Humans Using Physiologically-Based Pharmacokinetics” (Pharmaceutics, 2022)
